Experimental data: article PMC6437697 (Journal of Medicinal Chemistry, 2019)

How the values were obtained:
Type in all cases: binding
[1] = tested on: 455 wild-type and mutant human protein and lipid kinases; experiment: KINOMEscan panel summary; conditions: 1 μM
ABL1-phosphorylated = target: T1, ABL1-phosphorylated (Homo sapiens, UniProt P00519); experiment: KINOMEscan; conditions: read-out: % control activity remaining
T1 construct: purchased Eurofins DiscoverX KINOMEscan

EGFR(T790M) = target: T2, EGFR(T790M) (Homo sapiens, UniProt P00533, T790M); experiment: KINOMEscan; conditions: read-out: % control activity remaining
T2 construct: purchased Eurofins DiscoverX KINOMEscan

KIT(D816V) = target: T3, KIT(D816V) (Homo sapiens, UniProt P10721, D816V); experiment: KINOMEscan; conditions: read-out: % control activity remaining
T3 construct: purchased Eurofins DiscoverX KINOMEscan

MEK2 = target: T4, MEK2 (Homo sapiens, UniProt P36507); experiment: KINOMEscan; conditions: read-out: % control activity remaining
T4 construct: purchased Eurofins DiscoverX KINOMEscan

NEK5 = target: T5, NEK5 (Homo sapiens, UniProt Q6P3R8); experiment: KINOMEscan; conditions: read-out: % control activity remaining
T5 construct: purchased Eurofins DiscoverX KINOMEscan
T5 sequence (Q6P3R8 1-708): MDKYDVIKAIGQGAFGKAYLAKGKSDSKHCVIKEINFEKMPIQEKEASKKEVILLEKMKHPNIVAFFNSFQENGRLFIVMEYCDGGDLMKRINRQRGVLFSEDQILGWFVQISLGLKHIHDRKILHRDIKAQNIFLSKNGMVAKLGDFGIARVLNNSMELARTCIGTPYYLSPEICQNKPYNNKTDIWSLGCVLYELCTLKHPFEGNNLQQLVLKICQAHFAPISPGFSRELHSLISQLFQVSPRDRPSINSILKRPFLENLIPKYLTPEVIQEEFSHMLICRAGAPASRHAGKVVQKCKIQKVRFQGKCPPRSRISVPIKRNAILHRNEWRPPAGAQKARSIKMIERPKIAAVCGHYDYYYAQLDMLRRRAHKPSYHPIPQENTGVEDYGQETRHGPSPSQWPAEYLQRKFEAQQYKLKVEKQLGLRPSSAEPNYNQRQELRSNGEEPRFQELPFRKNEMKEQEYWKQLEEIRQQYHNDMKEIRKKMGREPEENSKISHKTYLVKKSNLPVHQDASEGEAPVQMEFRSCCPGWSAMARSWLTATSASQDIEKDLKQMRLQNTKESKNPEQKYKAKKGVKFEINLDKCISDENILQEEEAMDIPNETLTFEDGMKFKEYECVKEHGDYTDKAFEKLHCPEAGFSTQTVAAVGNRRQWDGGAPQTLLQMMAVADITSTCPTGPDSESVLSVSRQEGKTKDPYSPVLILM

PYK2 = target: T6, PYK2 (Homo sapiens, UniProt Q14289); experiment: KINOMEscan; conditions: read-out: % control activity remaining
T6 construct: purchased Eurofins DiscoverX KINOMEscan

SNRK = target: T7, SNRK (Homo sapiens, UniProt Q9NRH2); experiment: KINOMEscan; conditions: read-out: % control activity remaining
T7 construct: purchased Eurofins DiscoverX KINOMEscan
T7 sequence (Q9NRH2 1-765): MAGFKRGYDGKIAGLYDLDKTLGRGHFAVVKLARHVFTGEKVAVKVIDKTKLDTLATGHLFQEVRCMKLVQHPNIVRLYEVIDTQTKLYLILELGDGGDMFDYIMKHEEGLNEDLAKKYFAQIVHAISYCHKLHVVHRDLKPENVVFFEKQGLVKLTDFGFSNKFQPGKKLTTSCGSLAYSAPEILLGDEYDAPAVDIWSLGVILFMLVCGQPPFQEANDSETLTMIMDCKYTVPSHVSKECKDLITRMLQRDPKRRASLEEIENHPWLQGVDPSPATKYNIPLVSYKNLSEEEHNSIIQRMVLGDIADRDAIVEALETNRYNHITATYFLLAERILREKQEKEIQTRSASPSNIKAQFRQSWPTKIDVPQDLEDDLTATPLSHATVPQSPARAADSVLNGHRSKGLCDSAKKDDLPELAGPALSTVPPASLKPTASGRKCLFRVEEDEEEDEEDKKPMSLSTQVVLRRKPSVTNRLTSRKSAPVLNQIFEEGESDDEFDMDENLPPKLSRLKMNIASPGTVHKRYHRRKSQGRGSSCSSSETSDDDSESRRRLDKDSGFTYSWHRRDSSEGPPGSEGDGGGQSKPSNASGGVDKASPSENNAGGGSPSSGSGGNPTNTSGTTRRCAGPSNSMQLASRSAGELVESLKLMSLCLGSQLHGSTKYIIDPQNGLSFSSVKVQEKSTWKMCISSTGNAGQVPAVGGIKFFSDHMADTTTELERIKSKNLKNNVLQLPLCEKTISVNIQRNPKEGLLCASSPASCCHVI

TEC = target: T8, TEC (Homo sapiens, UniProt P42680); experiment: KINOMEscan; conditions: read-out: % control activity remaining
T8 construct: purchased Eurofins DiscoverX KINOMEscan
T8 sequence (P42680 1-631): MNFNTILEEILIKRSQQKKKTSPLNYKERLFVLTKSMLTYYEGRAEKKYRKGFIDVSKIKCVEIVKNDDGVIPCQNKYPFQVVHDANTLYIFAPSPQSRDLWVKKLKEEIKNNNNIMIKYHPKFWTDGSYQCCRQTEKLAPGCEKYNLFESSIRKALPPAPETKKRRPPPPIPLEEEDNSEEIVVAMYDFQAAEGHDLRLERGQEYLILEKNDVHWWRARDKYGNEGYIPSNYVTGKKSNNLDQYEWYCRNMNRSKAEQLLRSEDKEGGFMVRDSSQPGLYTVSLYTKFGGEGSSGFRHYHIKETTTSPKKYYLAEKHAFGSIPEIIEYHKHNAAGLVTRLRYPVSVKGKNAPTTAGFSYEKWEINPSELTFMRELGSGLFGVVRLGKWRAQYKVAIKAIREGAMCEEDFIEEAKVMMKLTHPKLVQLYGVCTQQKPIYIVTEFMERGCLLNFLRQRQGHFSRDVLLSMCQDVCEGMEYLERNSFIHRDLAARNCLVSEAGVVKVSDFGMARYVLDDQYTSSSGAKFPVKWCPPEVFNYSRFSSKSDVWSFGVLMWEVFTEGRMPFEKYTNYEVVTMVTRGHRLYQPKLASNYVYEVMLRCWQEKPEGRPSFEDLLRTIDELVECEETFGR

T3 sequence (P10721 26-976 D816V): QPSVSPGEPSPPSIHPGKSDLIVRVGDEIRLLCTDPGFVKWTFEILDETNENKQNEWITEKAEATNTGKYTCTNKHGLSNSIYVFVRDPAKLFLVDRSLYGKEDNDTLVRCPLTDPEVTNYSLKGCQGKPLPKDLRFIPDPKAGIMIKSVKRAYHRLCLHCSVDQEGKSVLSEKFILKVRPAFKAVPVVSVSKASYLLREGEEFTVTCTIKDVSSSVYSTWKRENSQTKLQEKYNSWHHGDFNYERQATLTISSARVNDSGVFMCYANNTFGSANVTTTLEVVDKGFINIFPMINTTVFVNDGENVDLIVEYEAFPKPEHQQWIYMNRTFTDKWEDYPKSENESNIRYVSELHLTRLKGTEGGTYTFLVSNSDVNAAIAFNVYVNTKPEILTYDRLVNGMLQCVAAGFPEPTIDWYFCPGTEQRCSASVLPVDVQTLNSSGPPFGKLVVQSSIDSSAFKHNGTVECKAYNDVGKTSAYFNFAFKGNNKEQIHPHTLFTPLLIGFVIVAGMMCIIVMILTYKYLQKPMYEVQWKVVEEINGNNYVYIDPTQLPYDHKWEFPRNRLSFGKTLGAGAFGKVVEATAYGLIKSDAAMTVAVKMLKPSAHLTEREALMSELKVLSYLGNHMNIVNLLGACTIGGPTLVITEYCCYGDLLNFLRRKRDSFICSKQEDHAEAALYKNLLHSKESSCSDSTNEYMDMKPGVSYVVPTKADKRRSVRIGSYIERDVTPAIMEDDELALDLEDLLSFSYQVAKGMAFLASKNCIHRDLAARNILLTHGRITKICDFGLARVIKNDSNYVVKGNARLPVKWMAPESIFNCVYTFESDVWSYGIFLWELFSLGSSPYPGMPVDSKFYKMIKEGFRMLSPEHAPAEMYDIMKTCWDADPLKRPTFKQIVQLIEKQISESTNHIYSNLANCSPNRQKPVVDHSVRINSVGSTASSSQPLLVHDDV
T6 sequence (Q14289 whole entry): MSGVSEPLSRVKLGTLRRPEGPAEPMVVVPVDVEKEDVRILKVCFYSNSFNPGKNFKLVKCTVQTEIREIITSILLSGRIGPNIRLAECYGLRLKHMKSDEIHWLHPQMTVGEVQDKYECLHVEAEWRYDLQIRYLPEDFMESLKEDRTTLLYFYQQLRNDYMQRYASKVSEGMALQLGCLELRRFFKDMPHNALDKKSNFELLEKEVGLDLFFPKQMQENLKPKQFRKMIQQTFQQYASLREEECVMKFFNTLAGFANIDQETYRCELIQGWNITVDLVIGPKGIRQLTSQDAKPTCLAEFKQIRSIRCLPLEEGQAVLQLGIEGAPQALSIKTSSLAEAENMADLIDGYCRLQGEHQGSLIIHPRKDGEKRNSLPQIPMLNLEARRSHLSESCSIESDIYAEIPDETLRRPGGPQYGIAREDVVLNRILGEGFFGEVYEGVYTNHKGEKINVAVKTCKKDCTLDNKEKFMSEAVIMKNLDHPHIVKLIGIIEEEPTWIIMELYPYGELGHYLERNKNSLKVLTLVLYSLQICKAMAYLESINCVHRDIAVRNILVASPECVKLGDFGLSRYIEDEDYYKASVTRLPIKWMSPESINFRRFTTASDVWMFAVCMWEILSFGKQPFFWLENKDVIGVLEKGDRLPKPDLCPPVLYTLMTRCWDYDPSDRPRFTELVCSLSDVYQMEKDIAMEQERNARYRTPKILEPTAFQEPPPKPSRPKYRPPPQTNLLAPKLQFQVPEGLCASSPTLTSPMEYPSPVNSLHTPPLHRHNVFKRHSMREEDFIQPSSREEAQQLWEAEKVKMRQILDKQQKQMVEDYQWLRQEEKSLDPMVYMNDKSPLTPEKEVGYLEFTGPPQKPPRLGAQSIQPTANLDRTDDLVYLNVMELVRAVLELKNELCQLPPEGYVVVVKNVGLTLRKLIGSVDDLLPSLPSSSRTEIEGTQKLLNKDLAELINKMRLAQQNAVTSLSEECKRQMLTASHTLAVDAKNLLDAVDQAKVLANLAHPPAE
T1 sequence (P00519 whole entry): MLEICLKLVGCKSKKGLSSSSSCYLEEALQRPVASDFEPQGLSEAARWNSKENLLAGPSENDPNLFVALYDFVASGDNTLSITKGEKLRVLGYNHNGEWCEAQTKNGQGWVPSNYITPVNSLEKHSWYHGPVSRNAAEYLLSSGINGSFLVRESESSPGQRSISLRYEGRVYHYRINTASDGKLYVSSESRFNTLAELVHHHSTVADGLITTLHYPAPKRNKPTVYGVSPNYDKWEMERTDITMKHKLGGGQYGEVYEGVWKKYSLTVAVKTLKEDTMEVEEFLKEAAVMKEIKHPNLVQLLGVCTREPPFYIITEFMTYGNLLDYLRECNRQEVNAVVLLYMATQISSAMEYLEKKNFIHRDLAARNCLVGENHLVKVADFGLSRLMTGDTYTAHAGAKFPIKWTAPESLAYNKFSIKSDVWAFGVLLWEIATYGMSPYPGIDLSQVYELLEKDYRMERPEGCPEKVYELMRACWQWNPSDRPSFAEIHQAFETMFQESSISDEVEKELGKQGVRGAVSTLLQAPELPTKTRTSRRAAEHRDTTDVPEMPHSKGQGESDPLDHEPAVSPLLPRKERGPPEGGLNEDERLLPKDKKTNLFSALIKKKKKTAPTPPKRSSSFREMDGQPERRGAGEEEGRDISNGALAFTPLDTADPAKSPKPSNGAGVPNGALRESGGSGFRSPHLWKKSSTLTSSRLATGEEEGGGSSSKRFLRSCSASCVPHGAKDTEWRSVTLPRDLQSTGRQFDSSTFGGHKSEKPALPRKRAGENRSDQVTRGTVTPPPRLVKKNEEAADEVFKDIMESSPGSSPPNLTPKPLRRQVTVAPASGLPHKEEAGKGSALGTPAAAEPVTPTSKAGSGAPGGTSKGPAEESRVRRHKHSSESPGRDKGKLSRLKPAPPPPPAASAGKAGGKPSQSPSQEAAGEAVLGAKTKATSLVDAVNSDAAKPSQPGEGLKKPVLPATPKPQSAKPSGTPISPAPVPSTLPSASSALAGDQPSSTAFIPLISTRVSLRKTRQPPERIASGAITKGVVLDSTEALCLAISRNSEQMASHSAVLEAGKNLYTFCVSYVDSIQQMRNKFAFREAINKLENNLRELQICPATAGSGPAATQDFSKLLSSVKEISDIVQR
T4 sequence (P36507 whole entry): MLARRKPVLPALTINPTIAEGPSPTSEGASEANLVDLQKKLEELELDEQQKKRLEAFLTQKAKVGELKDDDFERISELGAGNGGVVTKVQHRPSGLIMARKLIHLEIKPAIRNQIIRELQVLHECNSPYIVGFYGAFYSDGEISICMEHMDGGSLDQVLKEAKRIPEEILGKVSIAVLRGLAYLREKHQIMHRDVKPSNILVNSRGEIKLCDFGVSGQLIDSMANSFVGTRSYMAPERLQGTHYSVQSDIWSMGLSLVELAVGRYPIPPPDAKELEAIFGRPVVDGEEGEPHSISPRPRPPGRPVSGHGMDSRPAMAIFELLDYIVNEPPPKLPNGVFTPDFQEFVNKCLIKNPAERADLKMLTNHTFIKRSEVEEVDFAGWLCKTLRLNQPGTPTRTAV
T2 sequence (P00533 25-1210 T790M limits assumed): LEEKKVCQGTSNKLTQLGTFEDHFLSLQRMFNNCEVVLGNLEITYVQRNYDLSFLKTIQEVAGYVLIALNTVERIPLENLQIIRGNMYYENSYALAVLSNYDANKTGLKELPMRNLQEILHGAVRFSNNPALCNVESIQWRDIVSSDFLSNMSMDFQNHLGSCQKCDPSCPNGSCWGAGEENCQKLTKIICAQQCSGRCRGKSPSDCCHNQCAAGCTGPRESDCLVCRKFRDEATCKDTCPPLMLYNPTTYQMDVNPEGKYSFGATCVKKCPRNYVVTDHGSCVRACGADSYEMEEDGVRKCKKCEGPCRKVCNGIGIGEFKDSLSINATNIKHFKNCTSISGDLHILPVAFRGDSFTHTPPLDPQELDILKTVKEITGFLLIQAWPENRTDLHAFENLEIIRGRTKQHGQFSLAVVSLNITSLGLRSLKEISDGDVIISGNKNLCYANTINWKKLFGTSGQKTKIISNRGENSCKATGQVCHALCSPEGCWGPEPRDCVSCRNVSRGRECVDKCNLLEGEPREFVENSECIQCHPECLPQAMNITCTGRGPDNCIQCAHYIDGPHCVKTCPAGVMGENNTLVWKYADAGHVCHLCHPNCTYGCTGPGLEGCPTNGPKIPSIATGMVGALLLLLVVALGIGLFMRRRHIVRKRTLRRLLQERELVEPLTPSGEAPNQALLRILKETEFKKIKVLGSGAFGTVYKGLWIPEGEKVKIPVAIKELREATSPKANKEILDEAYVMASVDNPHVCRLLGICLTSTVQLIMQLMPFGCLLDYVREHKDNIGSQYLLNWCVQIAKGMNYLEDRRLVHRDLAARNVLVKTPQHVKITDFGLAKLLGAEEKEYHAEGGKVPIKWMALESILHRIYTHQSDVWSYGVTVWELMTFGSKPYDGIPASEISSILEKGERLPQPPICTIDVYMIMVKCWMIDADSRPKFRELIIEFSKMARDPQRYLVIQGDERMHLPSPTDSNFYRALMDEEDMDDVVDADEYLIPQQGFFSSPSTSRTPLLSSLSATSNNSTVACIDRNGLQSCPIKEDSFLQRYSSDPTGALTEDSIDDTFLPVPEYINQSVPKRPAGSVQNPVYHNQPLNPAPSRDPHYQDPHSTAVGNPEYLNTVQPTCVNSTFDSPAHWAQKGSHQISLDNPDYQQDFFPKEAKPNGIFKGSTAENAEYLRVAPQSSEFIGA

| SMILES | kinases with >70% inhibition / wild-type and mutant kinases tested [1] | remaining binding at 1 µM (ABL1-phosphorylated) | remaining binding at 1 µM (EGFR(T790M)) | remaining binding at 1 µM (KIT(D816V)) | remaining binding at 1 µM (MEK2) | remaining binding at 1 µM (NEK5) | remaining binding at 1 µM (PYK2) | remaining binding at 1 µM (SNRK) | remaining binding at 1 µM (TEC) |
| --- | --- | --- | --- | --- | --- | --- | --- | --- | --- |
| Clc1cc(NCC2CC2)c2ncc(-c3ccc4[nH]ncc4c3)n2n1 [compound 2, 6-Chloro-N-(cyclopropylmethyl)-3-(1H-indazol-5-yl)imidazo[1,2-b]pyridazin-8-amine] | 26/455 | 94% | 92% | 78% | 92% | 93% | 84% | 99% | 100% |
| O=C(CN1CCOCC1)N[C@H]1CC[C@H](Nc2cc(Cl)nn3c(-c4ccc5[nH]ncc5c4)cnc23)CC1 [compound 26] | 54/455 | 54% | 100% | 29% | 89% | 86% | 86% | 100% | 97% |
| CN1CCC(CNc2cc(Cl)nn3c(-c4cc5nc(Nc6ccccc6)[nH]c5cc4F)cnc23)CC1 [compound 31, 6-Chloro-3-(6-fluoro-2-(phenylamino)-1H-benzo[d]imidazol-5-yl)-N-((1-methylpiperidin-4-yl)methyl)imidazo[1,2-b]pyridazin-8-amine] | 4/455 | 81% | 100% | 81% | 80% | 96% | 99% | 79% | 88% |
